Each structure is given as a SMILES string. Like-named read-outs stand apart in the source and are kept apart here.

As a reminder, the EC50 is the concentration giving half of the maximal effect.

The subject of test [1] is Myotonic Dystrophy 1 affected patient fibroblasts (Coriel GM04602; 1600 CTG repeats). Kind of test: DM1 foci reduction assay (EC50 assay; CAG10-Cy3 FISH, foci per nucleus). It is filed as cell-based. The gist of the method:
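Foci per nucleus counted by 20× imaging of 4 areas per well, after overnight FISH with 5 nM CAG10-Cy3 and DAPI staining of fixed, permeabilized cells. DM1 fibroblasts (GM04602, 1600 CTG) were dosed 48 h at 37 °C, 8 points, 3-fold dilutions, 3 μM top concentration.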

For another test, the system named is F35T cells. Kind of test: Foci reduction in FECD (CAG10-Cy3 FISH, foci per nucleus). The class given is cell-based. The gist of the method: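 Foci per nucleus were counted by imaging after overnight CAG10-Cy3 FISH at 37 °C (30% formamide, 2×SSC) with DAPI counterstain, on PFA-fixed, ethanol-permeabilized F35T cells. The cells, seeded at 5000 per well in supplemented Opti-MEM, had received 8-point compound dilutions for 48 h at 37 °C.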

Where [2] appears, read: Homo sapiens, Fibroblast; DM1 patient fibroblasts, 48 h treatment, foci per nucleus; read-out: DM1 EC50, 48 h.
[3] abbreviates: F35T cells, 48 h treatment, foci per nucleus; read-out: FECD EC50, 48 h.
[4] abbreviates: Homo sapiens, Fibroblast; DM1 patient fibroblasts, foci per nucleus, 48 h treatment; read-out: DM1 EC50, 48 h.
[5] abbreviates: F35T cells, foci per nucleus, 48 h treatment; read-out: FECD EC50, 48 h.

As for `COC(=O)CCCN(CCCC(=O)O)Cc1ncc(C2CN(C(=O)CCNC(=O)c3nc(NC(=O)c4cc(NC(=O)CCNC(=O)c5nc(NC(=O)CCCNC(=O)c6cc(NC(=O)c7nc(NC(=O)CCNC(=O)c8cc(NC(=O)c9nccn9C)cn8C)cn7C)cn6C)cn5C)cn4C)cn3C)C2)[nH]1` [Compound B-370], the EC50 (in test [1] (setting [2]); with F35T cells (setting [3])) was > 1000 nM throughout.

As to `CC(Nc1cc(C(=O)NCCC(=O)Nc2cn(C)c(C(=O)Nc3cc(C(=O)NCCCC(=O)Nc4cn(C)c(C(=O)Nc5cc(C(=O)NCCC(=O)Nc6cn(C)c(C(=O)NCCC(=O)NCCOCCOCCOCCOCCOCCNC(=O)[C@@H](N)CO)n6)n(C)c5)n4)n(C)c3)n2)n(C)c1)c1nccn1C` (some centres unmarked) [Compound B-111], the values for the EC50 (in test [1] (setting [2]); in the test on F35T cells (setting [3])) were 500 to 1000 nM and > 1000 nM, respectively.

With `Cn1cc(NC(=O)c2nc(NC(=O)CCNC(=O)c3cc(NC(=O)c4nccn4C)cn3C)cn2C)cc1C(=O)NCCCC(=O)Nc1cn(C)c(C(=O)NCCC(=O)Nc2cc(C(=O)Nc3cn(C)c(C(=O)NCCC(=O)N4CC=C(C#CC5CCNCC5)CC4)n3)n(C)c2)n1` [Compound B-348], the EC50 lay within 500 to 1000 nM in test [1] (setting [2]) and 100 to 500 nM with F35T cells (setting [3]).

As to `CCCCn1cc(NC(=O)c2nc(NC(=O)CCNC(=O)c3cc(NC(=O)c4nccn4C)cn3C)cn2C)cc1C(=O)NCCCC(=O)Nc1cn(C)c(C(=O)NCCC(=O)Nc2cc(C(=O)Nc3cn(C)c(C(=O)NCCC(=O)N4CCN(C)CC4)n3)n(C)c2)n1` [Compound B-426], the EC50 (in test [1] (setting [4]); in the test with F35T cells (setting [5])) was 100 to 500 nM in each case.

Take `CCCNC(=O)CCNC(=O)c1nc(NC(=O)c2cc(NC(=O)CCNC(=O)c3nc(NC(=O)[C@H](N)CCNC(=O)c4cc(NC(=O)c5nc(NC(=O)CCNC(=O)c6cc(NC(=O)c7nccn7C)cn6C)cn5C)cn4C)cn3C)cn2C)cn1C` [Compound B-3, N-(5-{[(3R)-3-amino-3-[(1-methyl-2-{[2-({1-methyl-5-[(1-methyl-2-{[2-(propylcarbamoyl)ethyl]carbamoyl}imidazol-4-yl)carbamoyl]pyrrol-3-yl}carbamoyl)ethyl]carbamoyl}imidazol-4-yl)carbamoyl]propyl]carbamoyl}-1-methylpyrrol-3-yl)-1-methyl-4-(3-{[1-methyl-4-(1-methylimidazole-2-amido)pyrrol-2-yl]formamido}propanamido)imidazole-2-carboxamide]: the EC50 in test [1] (setting [2]) is < 100 nM; in the test on F35T cells (setting [3]), 500 to 1000 nM.

Turning to `CN(C)c1ccc(C#CCNC(=O)CCNC(=O)c2nc(NC(=O)c3cc(NC(=O)CCNC(=O)c4nc(NC(=O)CCCNC(=O)c5cc(NC(=O)c6nc(NC(=O)CCNC(=O)c7cc(NC(=O)c8nccn8C)cn7C)cn6C)cn5C)cn4C)cn3C)cn2C)cc1` [Compound B-135], the EC50 in test [1] (setting [2]) is < 100 nM; in the test with F35T cells (setting [3]) it was 100 to 500 nM.

As to `CN(C)CCCCn1cc(NC(=O)c2nc(NC(=O)CCNC(=O)c3cc(NC(=O)c4nccn4C)cn3C)cn2C)cc1C(=O)NCCCC(=O)Nc1cn(C)c(C(=O)NCCC(=O)Nc2cc(C(=O)Nc3cn(C)c(C(=O)NCCC(=O)N4CCCCC4)n3)n(C)c2)n1` [Compound B-428], the EC50 (in test [1] (setting [4]); in the test on F35T cells (setting [5])) was < 100 nM in each case.

As for `CC(=O)NCCOCCCn1cc(NC(=O)c2nc(NC(=O)CCNC(=O)c3cc(NC(=O)c4nccn4C)cn3C)cn2C)cc1C(=O)NCCCC(=O)Nc1cn(C)c(C(=O)NCCC(=O)Nc2cc(C(=O)Nc3cn(C)c(C(=O)NCCC(=O)N4CCC(C#CC#CC5CCN(C(C)=O)CC5)CC4)n3)n(C)c2)n1` [Compound B-305], the EC50 is 100 to 500 nM in test [1] (setting [2]) and < 100 nM with F35T cells (setting [3]).

Regarding `COC(=O)c1cccc(C#CCNCCCNC(=O)c2nc(NC(=O)c3cc(NC(=O)CCNC(=O)c4nc(NC(=O)CCCNC(=O)c5cc(NC(=O)c6nc(NC(=O)CCNC(=O)c7cc(NC(=O)c8nccn8C)cn7C)cn6C)cn5C)cn4C)cn3C)cn2C)c1` [Compound B-361], the EC50 (in test [1] (setting [2]); in the test with F35T cells (setting [3])) was < 100 nM each time.

In the case of `CCCCCn1cc(NC(=O)c2nc(NC(=O)CCNC(=O)c3cc(NC(=O)c4nccn4C)cn3C)cn2C)cc1C(=O)NCCCC(=O)Nc1cn(C)c(C(=O)NCCC(=O)Nc2cc(C(=O)Nc3cn(C)c(C(=O)NCCC(=O)NCCC)n3)n(C)c2)n1` [Compound B-322], the EC50 in test [1] (setting [2]) is < 100 nM; in the test with F35T cells (setting [3]), 100 to 500 nM.

As to `CCCNC(=O)CCNC(=O)c1nc(NC(=O)c2cc(NC(=O)CCNC(=O)c3nc(NC(=O)CCCNC(=O)c4cc(NC(=O)c5nc(NC(=O)CCNC(=O)c6cc(NC(=O)c7nccn7C)cn6C)cn5C)c[nH]4)cn3C)cn2C)cn1C` [Compound B-396], the EC50 (in test [1] (setting [2]); with F35T cells (setting [3])) was 100 to 500 nM throughout.

For `CN(C)CCCCNC(=O)c1nc(NC(=O)c2cc(NC(=O)CCNC(=O)c3nc(NC(=O)C[C@H](CNC(=O)c4cc(NC(=O)c5nc(NC(=O)CCNC(=O)c6cc(NC(=O)c7nccn7C)cn6C)cn5C)cn4C)NC(=O)c4ccccc4)cn3C)cn2C)cn1C` [Compound B-424], the EC50 (in test [1] (setting [4]); in the test with F35T cells (setting [5])) was 100 to 500 nM each time.

As to `COCCOCCOCCOCCN(CCOCCOCCOCCOC)C(=O)CCNC(=O)c1nc(NC(=O)c2cc(NC(=O)CCNC(=O)c3nc(NC(=O)CCCNC(=O)c4cc(NC(=O)c5nc(NC(=O)CCNC(=O)c6cc(NC(C)c7nccn7C)cn6C)cn5C)cn4C)cn3C)cn2C)cn1C` (centres unmarked) [Compound B-79], the EC50 in test [1] (setting [2]) was 100 to 500 nM; in the test on F35T cells (setting [3]), > 1000 nM.

Consider `CCCNC(=O)CCNC(=O)c1nc(NC(=O)c2cc(NC(=O)CCNC(=O)c3nc(NC(=O)CCCNC(=O)c4cc(NC(=O)c5nc(NC(=O)CCNC(=O)c6cc(NC(=O)c7nccn7C)cn6C)cn5C)cn4CCCCNC(C)=O)cn3C)cn2C)cn1C` [Compound B-282], for which the EC50 is 100 to 500 nM in test [1] (setting [2]) and < 100 nM in the test with F35T cells (setting [3]).

In the case of `CCCNC(=O)CCNC(=O)c1nc(NC(=O)c2cc(NC(=O)CCNC(=O)c3nc(NC(=O)CCCNC(=O)c4cc(NC(=O)c5nc(NC(=O)CCNC(=O)c6cc(NC(=O)c7nc(N=C(N(C)C)N(C)C)cn7C)cn6C)cn5C)cn4C)cn3C)cn2C)cn1C` [Compound B-326], the results for the EC50 (in test [1] (setting [2]); in the test with F35T cells (setting [3])) were 100 to 500 nM and > 1000 nM, respectively.

Take `CCCNC(=O)CCNC(=O)c1nc(NC(=O)c2cc(NC(=O)CCNC(=O)c3nc(NC(=O)CCCNC(=O)c4cc(NC(=O)c5nc(NC(=O)CCNC(=O)c6cc(NC(=O)c7nccn7C)cn6C)cn5C)cn4CCCCCCN=[N+]=[N-])cn3C)cn2C)cn1C` [Compound B-58]: the EC50 (in test [1] (setting [2]); with F35T cells (setting [3])) was < 100 nM in each case.

As to `CN1CCN(C(=O)CCNC(=O)c2nc(NC(=O)c3cc(NC(=O)CCNC(=O)c4nc(NC(=O)CCCNC(=O)c5cc(NC(=O)c6nc(NC(=O)CCNC(=O)c7cc(NC(=O)c8nccn8C)cn7C)cn6C)cn5CCCCO)cn4C)cn3C)cn2C)CC1` [Compound B-427], the EC50 in test [1] (setting [4]) was 100 to 500 nM; in the test on F35T cells (setting [5]), < 100 nM.

In the case of `CN(CCCNC(=O)c1cccc(C(=O)O)c1)CCCNC(=O)c1cc(NC(=O)CCNC(=O)c2nc(NC(=O)CCCNC(=O)c3cc(NC(=O)c4nc(NC(=O)CCNC(=O)c5cc(NC(=O)c6nccn6C)cn5C)cn4C)cn3CCCCCCN=[N+]=[N-])cn2C)cn1C` [Compound B-253], the EC50 (in test [1] (setting [2]); in the test with F35T cells (setting [3])) was > 1000 nM each time.

As for `COCCOCCOCCOCCOCCOCCC(=O)NCCCCCCn1cc(NC(=O)c2nc(NC(=O)CCNC(=O)c3cc(NC(=O)c4nccn4C)cn3C)cn2C)cc1C(=O)NCCCC(=O)Nc1cn(C)c(C(=O)NCCC(=O)Nc2cc(C(=O)Nc3cn(C)c(C(=O)NCCC(=O)N4CCC(C#CC#CC5CCN(C(=O)OC(C)(C)C)CC5)CC4)n3)n(C)c2)n1` [Compound B-351], the EC50 was > 1000 nM in test [1] (setting [2]) and < 100 nM in the test on F35T cells (setting [3]).

As to `Cn1cc(NC(=O)c2nc(NC(=O)CCNC(=O)c3cc(NC(=O)c4nccn4C)cn3C)cn2C)cc1C(=O)NCCCC(=O)Nc1cn(C)c(C(=O)NCCC(=O)Nc2cc(C(=O)Nc3cn(C)c(C(N)=O)n3)n(C)c2)n1` [Compound B-308], the results for the EC50 (in test [1] (setting [2]); in the test on F35T cells (setting [3])) were 100 to 500 nM and < 100 nM, respectively.

Consider `CCCNC(=O)CCNC(=O)c1nc(NC(=O)c2cc(NC(=O)CCNC(=O)c3nc(NC(=O)CCCNC(=O)c4cc(NC(=O)c5nc(NC(=O)CCNC(=O)c6cc(NC(=O)c7nccn7C)cn6C)cn5C)cn4CCCCN)cn3C)cn2C)cn1C` [Compound B-279], for which the EC50 (in test [1] (setting [2]); with F35T cells (setting [3])) was < 100 nM each time.

As to `CCCNC(=O)CCNC(=O)c1nc(NC(=O)CCNC(=O)c2cc(NC(=O)c3nc(NC(=O)CCCNC(=O)c4cc(NC(=O)c5nc(NC(=O)CCNC(=O)c6cc(NC(C)c7nccn7C)cn6C)cn5C)cn4C)cn3C)cn2C)cn1C` (centres unmarked) [Compound B-74], the figures for the EC50 (in test [1] (setting [2]); in the test with F35T cells (setting [3])) were > 1000 nM and 500 to 1000 nM, respectively.

Turning to `CCCNC(=O)CCNC(=O)c1nc(NC(=O)c2cc(NC(=O)CCNC(=O)c3nc(NC(=O)CCCNC(=O)c4cc(NC(=O)c5nc(NC(=O)CCNC(=O)c6cc(NC(=O)c7nccn7C)cn6C)cn5C)cn4CC)cn3C)cn2C)cn1C` [Compound B-318], the EC50 in test [1] (setting [2]) is 100 to 500 nM; in the test on F35T cells (setting [3]) it was < 100 nM.

Regarding `Cn1cc(NC(=O)c2nccn2C)cc1C(=O)NCCC(=O)Nc1cn(C)c(C(=O)Nc2cc(C(=O)NCC[C@@H](N)C(=O)Nc3cn(C)c(C(=O)NCCC(=O)Nc4cc(C(=O)Nc5cn(C)c(C(=O)CCCC(=O)N6CCCCC6)n5)n(C)c4)n3)n(C)c2)n1` [Compound B-406], the EC50 is 100 to 500 nM in test [1] (setting [2]) and > 1000 nM in the test on F35T cells (setting [3]).

On to `CCCNC(=O)CCNC(=O)c1cc(NC(=O)c2nc(NC(=O)CCNC(=O)c3cc(NC(=O)c4nc(NC(=O)CCCNC(=O)c5cc(NC(=O)c6nc(NC(=O)CCNC(=O)c7cc(NC(=O)c8nccn8C)cn7C)cn6C)cn5C)cn4C)cn3C)cn2C)cn1C` [Compound B-10], for which the EC50 was > 1000 nM in test [1] (setting [2]) and < 100 nM in the test on F35T cells (setting [3]).

For the origin of these results see patent US20250368628A1, “METHODS AND COMPOUNDS FOR MODULATING INHERITED GENETIC DISEASES” (Design Therapeutics, Inc., priority 2022, published 2025).
